Reference: PubChem BioAssay (NCI)
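Each compound was tested at five concentrations against cells in 96-well plates for 48 hours. Here, GI50 denotes the concentration required for 50% inhibition of growth. TGI: concentration producing complete growth inhibition.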

Key:
Test in all cases: DTP human tumour cell line panel, 48 h
UO-31 renal = test system: UO-31 renal
NCI-H522 lung = test system: NCI-H522 lung
SK-MEL-5 melanoma = test system: SK-MEL-5 melanoma
UACC-62 melanoma = test system: UACC-62 melanoma
HOP-62 NSCLC = test system: HOP-62 NSCLC
UACC-257 melanoma = test system: UACC-257 melanoma
NCI-H226 lung = test system: NCI-H226 lung
DU-145 prostate = test system: DU-145 prostate
SR leukemia = test system: SR leukemia
MDA-MB-231 breast = test system: MDA-MB-231 breast

Compound	TGI (UO-31 renal) [µM]	TGI (NCI-H522 lung) [µM]	TGI (SK-MEL-5 melanoma) [µM]	TGI (UACC-62 melanoma) [µM]	TGI (HOP-62 NSCLC) [µM]	TGI (UACC-257 melanoma) [µM]	TGI (NCI-H226 lung) [µM]	TGI (DU-145 prostate) [µM]	TGI (SR leukemia) [µM]	GI50 (MDA-MB-231 breast) [µM]	TGI (MDA-MB-231 breast) [µM]	GI50 (UO-31 renal) [µM]	GI50 (NCI-H522 lung) [µM]	GI50 (SK-MEL-5 melanoma) [µM]	GI50 (DU-145 prostate) [µM]	GI50 (UACC-62 melanoma) [µM]	GI50 (HOP-62 NSCLC) [µM]	GI50 (UACC-257 melanoma) [µM]	GI50 (NCI-H226 lung) [µM]	GI50 (SR leukemia) [µM]
COc1ccc(/C=C2/C[N+](C)(C)C/C(=C/c3ccc(OC)cc3)C2=O)cc1	> 100	37.9	> 72	47.5	> 100	> 100	> 100													
COC(=O)C(Nc1ccc(OC)cc1)c1ccccc1 (centres undefined)	> 100	> 100	> 100	> 100	> 100	> 100		> 100	> 100											
Cc1cc(C)nc(Nc2nc3ccc([N+](=O)[O-])cc3[nH]2)n1	> 100	> 100	> 100	> 100	> 100	> 100	> 100		> 100											
COc1ccc2ccc([Se]c3ccc4ccc(OC)cc4c3)cc2c1	95.8	> 100	> 100	> 100	> 100	> 100	> 100													
O=c1cc(-c2ccccc2)nc2n1CCN2Cc1ccccc1	74.7	56.1	37.4	66.7	> 100	> 100	> 100	> 100		32.2	> 100	21.3	20.8	19.9	34	19.8	63.8	37.1	54.7	
CC(=O)N1c2ccccc2Sc2cc(C(O)(C(F)(F)F)C(F)(F)F)ccc21	> 10	> 10	> 10	> 10	> 10	> 10	> 10	> 10			> 10									
O=S1(=O)C[C@@H](O)[C@H](O)CS1	> 100	> 100	> 100	> 100	> 100	> 100	> 100		> 100											
COc1ccc2[nH]c(Cl)c(/C=C3/C(=O)N(C)c4ccccc43)c2c1	> 100	> 100	> 100	> 100	> 100	> 100	> 100			36.5	> 100	> 100	> 100	69.3		71	92	> 100	29.4	
CC(=O)OCC1OC(n2c(=O)n(-c3ccccc3)c(=O)c3ccccc32)C(OC(C)=O)C(OC(C)=O)C1OC(C)=O (centres undefined)	> 100	> 100	> 100	> 100	> 100	> 100	> 100													
CCOC(=O)CC1=CSC2=NCCN12	> 100	> 100	> 100	> 100	> 100	> 100	> 100													
O=C(O)C12C3CCCC1C2CC3 (centres undefined)	> 100	> 100	> 100	> 100	> 100	> 100	> 100		> 100											
CCOC(=O)C(=O)Nc1c(N(CC)CC)n2ccccc2nc1=O	> 100	> 100	> 100	> 100	> 100		> 100		> 100											
CN(c1ccccc1)C(c1ccccc1)C(O)c1ccccc1 (centres undefined)	41.9	36.9	34.7	38.1	38	35.6			49.8											
c1ccc(N=C2c3ccccc3C3=NCCCN32)cc1	> 100	96.8	76.8	> 100	> 100	> 100	> 100													
O=C1C(=O)N(c2ccc(Cl)c(Cl)c2)C(=O)C(=O)C1c1nc2ccccc2o1	> 100	> 100		> 100	> 100	> 100	> 100		86											
CC(=O)/C=C/c1ccc(C2CC(C)=Nc3c(ccc4c3C(=O)c3ccccc3C4=O)N2)cc1 (centres undefined)	> 100	> 100	> 100	> 100	> 100		> 100		> 100											
CCOC(=O)c1ccc(N2C(=O)/C(=C\OC)c3ccccc3C2=O)cc1	62.8	> 100	> 100	> 100		> 100	> 100		> 100											
CC1(C)OCC(CO)(Nc2nc(N3CC3)nc(N3CC3)n2)CO1	23.1	33.8	22.1	14	30.9	45.1	28.5	8.91	28.9											
ON=C1CCC(c2ccccc2)CC1 (centres undefined)	> 100	> 100	> 100	> 100	> 100	> 100	> 100													
CC(C(=O)Oc1ccc2ccccc2c1-c1c(O)ccc2ccccc12)c1ccccc1 (centres undefined)	6.37		26.8	27	29.8	27.6	26.5													
CC[N+](CC)(CC)CCCn1c2c(c3ccccc3c1=O)C(=O)c1ccccc1-2		21.4	5.91	29.3		36.3			> 100	17.6	84.2		4.71	1.43		9.31		12.3		3.56
O=C([CH-]C(=O)c1ccccc1)c1ccccc1.O=C([CH-]C(=O)c1ccccc1)c1ccccc1.[Nd+3].[OH-].[OH3+]	12.4	13.3	17.2	22.2	18.4	41.9	8.28					3.11	1.42	3.94		4.76	3.58	15.2	1.94	
CC(=O)Nc1ccc(C2[C@H]3C(=O)N(c4ccc(Cc5ccc(N6C(=O)[C@@H]7ON(c8ccccc8)C(c8ccc(NC(C)=O)cc8)[C@@H]7C6=O)cc5)cc4)C(=O)[C@H]3ON2c2ccccc2)cc1 (some centres undefined)	> 100	> 100	> 100	> 100	> 100	> 100	> 100		> 100											
CCOC(=O)C1C(=O)c2ccccc2CN1Cc1ccccc1 (centres undefined)	> 100	> 100	> 100	> 100	> 100	> 100	> 100		> 100											
